{"source": "ChEMBL document CHEMBL1138060", "about": "“3-arylimino-2-indolones are potent and selective galanin GAL3 receptor antagonists” (J Med Chem, 2006)", "key": {"Galanin receptor type 3": {"molecular_target": "T1, Galanin receptor type 3 (Homo sapiens, UniProt O60755)", "T1 sequence (O60755 whole entry)": "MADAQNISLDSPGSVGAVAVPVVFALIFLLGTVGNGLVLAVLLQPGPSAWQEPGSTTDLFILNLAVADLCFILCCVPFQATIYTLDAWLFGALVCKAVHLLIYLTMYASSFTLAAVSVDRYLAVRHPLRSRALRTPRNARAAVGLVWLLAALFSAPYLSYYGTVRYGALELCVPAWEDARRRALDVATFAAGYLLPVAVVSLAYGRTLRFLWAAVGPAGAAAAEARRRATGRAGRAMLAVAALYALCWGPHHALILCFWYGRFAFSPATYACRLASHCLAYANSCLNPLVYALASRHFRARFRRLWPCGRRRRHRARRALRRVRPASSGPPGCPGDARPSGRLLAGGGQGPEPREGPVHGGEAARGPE", "assay": "Displacement of [125I]galanin from human GAL3"}, "[1]": {"assay": "Drug level in rat plasma at 30 mg/kg, ip after 4 hrs", "format": "ADME, organism-based", "design": "dose 30 mg/kg, route intraperitoneal"}, "[2]": {"assay": "Drug level in rat plasma at 30 mg/kg, ip after 2 hrs", "format": "ADME, organism-based", "design": "dose 30 mg/kg, route intraperitoneal"}, "[3]": {"assay": "Drug level in rat brain at 10 mg/kg, sc after 2 hrs", "format": "ADME, organism-based", "design": "dose 10 mg/kg, route subcutaneous", "settings": "read-out: Drug uptake"}, "[4]": {"molecular_target": "T2, 5-hydroxytryptamine receptor 4 (Homo sapiens, UniProt Q13639)", "T2 sequence (Q13639 whole entry)": "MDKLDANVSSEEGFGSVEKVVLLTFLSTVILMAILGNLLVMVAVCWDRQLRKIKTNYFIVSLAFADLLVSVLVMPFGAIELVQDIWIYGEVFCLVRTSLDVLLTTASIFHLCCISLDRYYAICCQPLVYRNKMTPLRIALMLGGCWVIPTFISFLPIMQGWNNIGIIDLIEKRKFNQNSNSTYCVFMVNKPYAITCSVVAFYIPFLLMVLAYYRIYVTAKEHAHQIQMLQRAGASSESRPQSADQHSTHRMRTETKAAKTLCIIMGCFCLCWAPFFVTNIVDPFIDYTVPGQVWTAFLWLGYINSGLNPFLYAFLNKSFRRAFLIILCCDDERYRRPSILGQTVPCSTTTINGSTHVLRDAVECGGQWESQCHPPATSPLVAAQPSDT", "assay": "Binding affinity to human 5HT4"}, "[5]": {"assay": "Drug level in rat plasma at 10 mg/kg, sc after 2 hrs", "format": "ADME, organism-based", "design": "dose 10 mg/kg, route subcutaneous"}, "[6]": {"assay": "Drug level in rat brain at 30 mg/kg, ip after 4 hrs", "format": "ADME, organism-based", "design": "dose 30 mg/kg, route intraperitoneal", "settings": "read-out: Drug uptake"}, "[7]": {"assay": "Drug level in rat plasma at 10 mg/kg, pp after 2 hrs", "format": "ADME, organism-based", "design": "dose 10 mg/kg"}, "[8]": {"molecular_target": "T2, 5-hydroxytryptamine receptor 4", "assay": "Agonist activity at human 5HT4 upto 10 uM", "format": "functional"}, "[9]": {"assay": "Drug level in rat brain at 30 mg/kg, ip after 2 hrs", "format": "ADME, organism-based", "design": "dose 30 mg/kg, route intraperitoneal", "settings": "read-out: Drug uptake"}, "[10]": {"molecular_target": "T2, 5-hydroxytryptamine receptor 4", "assay": "Antagonist activity against human 5HT4 upto 10 uM", "format": "functional"}}, "note": "The source made the active and inactive calls. The rule behind the calls is not given here.", "data": [{"smiles": "O=C1Nc2ccccc2/C1=N\\c1ccc(Cl)cc1", "values": [{"measurement": "Ki", "setting": "Galanin receptor type 3", "result": 850, "unit": "nM"}]}, {"smiles": "O=C1Nc2ccccc2/C1=N\\c1cccc(C(F)(F)F)c1", "values": [{"measurement": "Ki", "setting": "Galanin receptor type 3", "result": 596, "unit": "nM"}]}, {"smiles": "C#CCN1C(=O)/C(=N/c2cccc(C(F)(F)F)c2)c2ccccc21", "values": [{"measurement": "Ki", "setting": "Galanin receptor type 3", "result": 89, "unit": "nM"}]}, {"smiles": "COc1ccc(/N=C2/C(=O)Nc3ccccc32)cc1", "values": [{"measurement": "Ki", "setting": "Galanin receptor type 3", "result": "> 10000", "unit": "nM"}]}, {"smiles": "CCC(CC)N1C(=O)/C(=N/c2ccc(C(F)(F)F)cc2)c2ccccc21", "values": [{"measurement": "Ki", "setting": "Galanin receptor type 3", "result": 52, "unit": "nM"}]}, {"smiles": "O=C1/C(=N/c2cccc(C(F)(F)F)c2)c2ccccc2N1c1ccccc1", "values": [{"measurement": "concentration at 4 h", "setting": "[1]", "result": 1680, "unit": "ng/mL"}, {"measurement": "concentration at 2 h", "setting": "[2]", "result": 780, "unit": "ng/mL"}, {"measurement": "concentration at 2 h", "setting": "[3]", "result": 350, "unit": "ng/g"}, {"measurement": "Ki", "setting": "[4]", "result": 72, "unit": "nM"}, {"measurement": "concentration at 2 h", "setting": "[5]", "result": 990, "unit": "ng/mL"}, {"measurement": "concentration at 4 h", "setting": "[6]", "result": 1210, "unit": "ng/g"}, {"measurement": "concentration at 2 h", "setting": "[7]", "result": 90, "unit": "ng/mL"}, {"measurement": "Activity", "setting": "[8]", "result": "inactive"}, {"measurement": "concentration at 2 h", "setting": "[9]", "result": 1060, "unit": "ng/g"}, {"measurement": "Activity", "setting": "[10]", "result": "inactive"}]}, {"smiles": "O=C1Nc2ccccc2/C1=N\\c1cccc(Cl)c1Cl", "values": [{"measurement": "Ki", "setting": "Galanin receptor type 3", "result": 437, "unit": "nM"}]}, {"smiles": "C=CCN1C(=O)/C(=N/c2ccc(Cl)c(Cl)c2)c2ccccc21", "values": [{"measurement": "Ki", "setting": "Galanin receptor type 3", "result": 150, "unit": "nM"}]}]}
